Assay results: US8101572B2, “Methods for promoting wound healing and/or reducing scar formation” (Arizona Board of Regents, A Corporate Body Organized Under …, priority 2003, dated 2012)
Non-standard residues stand in square brackets, D forms with d. No end group written: not given here. pS = N[C@@H](COP(=O)(O)O)C(=O)O

Key:
[1] = system: 3T3 cells; assay: focal adhesion assay using interference reflection microscopy; format: cell-based; conditions: cultured 3T3 cells; 100 nM Hep I, 10 μM and 25 μM peptide; FIG. 2
Method: Results from the focal adhesion assay using interference reflective microscopy on 3T3 cells treated as described (4). Each condition was tested in triplicate, and an average of 250 cells per coverslip was counted. A cell was scored positive if it contained at least five focal adhesions. Hep I (peptide from thrombospondin 1) was used as a positive control. *P<0.05 compared to untreated cells.
(§1) Unless otherwise stated, all reagents were purchased from Sigma, St. Louis, Mo. Swiss Albino 3T3 fibroblasts (ATCC, Manassas, Va.) were cultured in DMEM supplemented with 10% BCS, 4 mM L-glutamine and 50 μg/ml penicillin-streptomycin and maintained at 37° C., 5% CO2. Cells were seeded and cultured overnight. Culture media was replaced with DMEM containing 0.5% BCS 1 hour prior to experimentation. Cells were incubated with the peptide analogues or reagent (LPA or forskolin) diluted in DMEM containing 0.5% BCS, 30 minutes at 37° C. Cells were then fixed in 4% paraformnaldehyde, permeabilized in 0.25% Triton X-100, and blocked with 1% BSA solution for 1 hour. To determine f-actin cytoskeletal distribution, treated cells were incubated with Alexa 568 phalloidin (Molecular Probes, Eugene, Oreg.) in 1% BSA, 30 minutes. […] Slides were mounted and analyzed by confocal microscopy (Leica TCS SP2, Bannockburn, Ill.). […]

[2] = system: motor cortex of Sprague Dawley rats; assay: microwire neural electrode implant, histology for glial scarring (GFAP) and axons (MAP2); format: in vivo; conditions: rat motor cortex, four weeks after implant; peptide as subdural injection (0.1 cc, 100 μm p20) with dextran coated electrodes
Description: Microwire arrays were implanted in the motor cortex of Sprague Dawley rats. Six male Sprague-Dawley rats (300-450 g) were implanted with 2×4 arrays of 50 μm tungsten wire. The electrodes were spaced 500 um apart for a total array size of approximately 1.5 mm×0.5 mm. The implant was centered +3 mm anterior and +2 mm lateral from bregmna. The craniotomy was opened slightly larger than the implant size and an injection (0.1 cc, 0.9% PBS or 100 μm p20) was made into the arachnoid space near the implant site using a 30 gauge needle. The mirowire array was held in a micromanipulator and lowered 2 mm from the surface of the dura. The craniotomy was covered with Gelfoam® and the implant and connector were cemented in place with dental acrylic. Three groups were implanted and evaluated histologically after four weeks. Group one was implanted with untreated electrodes. […] Texas Red labeled anti-Rabbit and Cy5 labeled antij-donkey secondary antibodies were used respectively for visualization.

[3] = system: 3T3 cells; assay: DNase 1 inhibition assay for monomer g-actin; format: cell-based; conditions: forskolin 10 μM, 30 min, pHSP20 25 μM
Method: 3T3 cells were cultured and treated as indicated on the graph (4). Monomer g-actin was biochemically quantitated using a DNase 1 inhibition assay. The level of g-actin in the cell extract that caused 50% inhibition of DNase 1 was estimated from a standard actin curve that was determined using known amounts of actin. *P<0.05 compared to untreated cells.
To confirm that the loss of stress fibers is associated with loss of filamentous (f-) actin and commensurate increases in globular (g-) actin, a DNase 1 inhibition assay was performed (5). 3T3 cells were cultured and treated as indicated (4). Monomer g-actin was biochemically quantitated using a DNase 1 inhibition assay. The level of g-actin in the cell extract that caused 50% inhibition of DNase 1 was estimated from a standard actin curve that was determined using known amounts of actin. […] Thus, transduction of pHSP20 led to similar changes in actin filament dynamics and cellular morphology, as did activation of the upstream adenylate cyclase activator forskolin.

[4] = system: Swiss albino 3T3 cells; assay: focal adhesion protein localization (immunostaining for α-actinin, vinculin, paxillin); format: cell-based; conditions: 30 min, 10 μM forskolin, 25 μM pHSP20, 25 μM FITC-aHSP20
Method: Unless otherwise stated, all reagents were purchased from Sigma, St. Louis, Mo. Swiss Albino 3T3 fibroblasts (ATCC, Manassas, Va.) were cultured in DMEM supplemented with 10% BCS, 4 mM L-glutamine and 50 μg/ml penicillin-streptomycin and maintained at 37° C., 5% CO2. Cells were seeded and cultured overnight. Culture media was replaced with DMEM containing 0.5% BCS 1 hour prior to experimentation. Cells were incubated with the peptide analogues or reagent (LPA or forskolin) diluted in DMEM containing 0.5% BCS, 30 minutes at 37° C. Cells were then fixed in 4% paraformnaldehyde, permeabilized in 0.25% Triton X-100, and blocked with 1% BSA solution for 1 hour. To determine f-actin cytoskeletal distribution, treated cells were incubated with Alexa 568 phalloidin (Molecular Probes, Eugene, Oreg.) in 1% BSA, 30 minutes. To determine focal adhesion protein localization, treated cells were incubated with primary monoclonal antibodies for α-actinin (1:100, Upstate, Charlottesville, Va.), vinculin (1:100, Sigma) or paxillin (1:100, BD Bioscience-Transduction Labs, San Jose, Calif.) in 1% BSA solution for 2 hours, rinsed in PBS and incubated 60 min with Cy3-goat IgG secondary antibody (Jackson ImmunoResearch, West Grove, Pa.). Slides were mounted and analyzed by confocal microscopy (Leica TCS SP2, Bannockburn, Ill.). […]

[5] = system: Swiss albino 3T3 cells; assay: f-actin cytoskeletal distribution (Alexa 568 phalloidin, confocal microscopy); format: cell-based; conditions: 30 min, 10 μM LPA, 10 μM forskolin, 25 μM FITC-pHSP20, 25 μM FITC-aHSP20
Method: as §1
Swiss albino 3T3 cells were either untreated or treated with 10 μM LPA, 10 μM forskolin, 25 μM FITC-pHSP20, or 25 μM FITC-aHSP20 as described (4). Cells were fixed, stained for f-actin using Alexa 568 phalloidin, and visualized by projection images of confocal fluorescence microscopy. […]

Substance	focal adhesions (cells positive for focal adhesions) [1]	density of axons in the vicinity of the microwire electrodes [2]	glial scarring around electrodes [2]	g-actin (monomer) in cell extract ([3]; FIG. 1)	g-actin (monomer) in cell extract ([3]; FIG. 1, listed as PhosphoHSP20 peptide)	focal adhesion accumulations of α-actinin, vinculin, and paxillin [4]	cell morphology and stress fibers (f-actin) [5]
YGRKKRRQRRRWLRRApSAPLPGL (YGRKKRRQRRRWLRRA[pS]APLPGL) [pHSP20, phosphopeptide analogue of HSP20 with HIV Tat protein transduction domain]	led to disruption of focal adhesions	a higher density of axons was seen	essentially no scarring was observed	led to increases in g-actin	disrupts the actin cytoskeleton	displayed a decrease in focal adhesion accumulations of α-actinin, vinculin, and paxillin	displayed stellate morphology and disrupted stress fibers
lysophosphatidic acid [reference compound]	–	–	–	–	–	–	displayed robust stress fibers
